The source of these data is patent US8623327B2, “Imaging agents for use in magnetic resonance blood flow/perfusion imaging” (Beth Israel Deaconess Medical Center, Inc., priority 2006, dated 2014).

A short description of series [1]: NMR relaxation time (T1, T2) measurement, saturation recovery. It counts as physicochemical. Conditions: for median value of T1: 9.6 T.
Series [2] concerns alcohol dehydrogenase enzyme. The note with it: cited from earlier work.
The conditions of series [3]: cited from earlier work.
The conditions of series [4]: cited from earlier work. The source holds these as a separate data set.
Where [5] appears, read: single saturated recovery experiment (FIGS. 2A and 2B).

Where two headings read alike, the source gives them in different places.

`[2H]C([2H])([2H])[13C](O)(C([2H])([2H])[2H])C([2H])([2H])[2H]`: in series [1] (at 400 Mhz), the “median value of T1” value is 64 ± 20 s. Also, in series [1] (at 400 Mhz, measured in water with oxygen present), the T1 was greater than 20 s. In series [1] (setting [5]), this compound returned a T1 of 46±4 and a T2 of 0.6±0.02.
In the case of `CC(C)(C)O` [t-butanol, tert-butyl alcohol], the “processing by alcohol dehydrogenase enzyme” value in series [2] is reported as “not processed”.
As to `[3He]` [3He], the solubility in blood result in series [3] is recorded as “not soluble in blood”.
Regarding `[2H][13C]([2H])([2H])C(O)([13C]([2H])([2H])[2H])[13C]([2H])([2H])[2H]`, the “median value of T1” value in series [1] (at 400 Mhz) turned out to be 26 ± 5 s.
As for `[Xe]` [Xenon], the relaxation time result was “less than 10 seconds” in series [4] (in blood) and no less than 2 s in series [4] (in tissue).
